Experimental data published in ChEMBL document CHEMBL1201862, “PubChem BioAssay data set” (2004).
Calls of active or inactive are those of the source.

What was measured:
Mu-type opioid receptor = Mu-type opioid receptor (Homo sapiens, UniProt P35372); format: functional, cell-based;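 also: U2OS cells with beta-arrestin recruitment to OPRM1 by beta-gal complementation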
[1] = target: 5-hydroxytryptamine receptor 2A (Mus musculus, UniProt P35363); format: functional, cell-based;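 also: CHO-K1 cells with tagged receptor and beta-arrestin; agonist potency measured as compound-induced activation of the receptor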
Insulin-degrading enzyme [2] = target: T1, Insulin-degrading enzyme (Homo sapiens, UniProt P14735); test: cellular IDE activation of Abeta substrate cleavage – fluorescence polarization, HEK cells, dose response (AID 588439); format: functional, cell-based
T1 sequence (P14735 whole entry): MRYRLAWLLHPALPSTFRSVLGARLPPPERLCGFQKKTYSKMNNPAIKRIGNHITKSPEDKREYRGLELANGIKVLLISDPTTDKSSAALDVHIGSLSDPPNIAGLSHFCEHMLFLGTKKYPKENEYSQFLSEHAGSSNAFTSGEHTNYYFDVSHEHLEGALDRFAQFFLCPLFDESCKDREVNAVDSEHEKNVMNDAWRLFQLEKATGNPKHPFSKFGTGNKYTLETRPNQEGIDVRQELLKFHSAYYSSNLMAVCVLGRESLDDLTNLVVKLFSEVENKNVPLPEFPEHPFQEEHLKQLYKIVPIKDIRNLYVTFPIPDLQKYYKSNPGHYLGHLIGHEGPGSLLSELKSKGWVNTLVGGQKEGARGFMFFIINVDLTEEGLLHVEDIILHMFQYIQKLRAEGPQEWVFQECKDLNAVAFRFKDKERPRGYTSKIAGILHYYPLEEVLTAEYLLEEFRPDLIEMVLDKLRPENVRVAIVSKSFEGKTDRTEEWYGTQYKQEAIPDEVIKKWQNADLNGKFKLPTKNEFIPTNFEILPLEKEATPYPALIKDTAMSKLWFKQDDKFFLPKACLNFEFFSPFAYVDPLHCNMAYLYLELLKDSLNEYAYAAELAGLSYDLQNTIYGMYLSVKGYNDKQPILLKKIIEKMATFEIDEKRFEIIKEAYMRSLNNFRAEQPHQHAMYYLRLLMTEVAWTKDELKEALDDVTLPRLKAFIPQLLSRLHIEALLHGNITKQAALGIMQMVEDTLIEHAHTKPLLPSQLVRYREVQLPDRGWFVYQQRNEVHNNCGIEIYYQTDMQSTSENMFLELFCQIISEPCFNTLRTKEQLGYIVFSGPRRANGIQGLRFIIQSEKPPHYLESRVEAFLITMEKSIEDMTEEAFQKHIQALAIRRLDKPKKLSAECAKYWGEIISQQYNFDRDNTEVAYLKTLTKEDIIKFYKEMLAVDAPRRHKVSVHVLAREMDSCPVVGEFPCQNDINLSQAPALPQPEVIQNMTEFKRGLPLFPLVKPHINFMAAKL

Melanocortin receptor 4 = Melanocortin receptor 4 (Homo sapiens, UniProt P32245); format: functional, cell-based;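 also: Cell-based assay with luminescence read-out, confirmatory dose-response testing for agonist activity of biased ligands at MC4R; human U2OS cells with tagged receptor and beta-arrestin; potency of agonists that increase receptor coupling to beta-arrestin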
HEK293 [3] = test: membrane integrity loss in HEK cells – cell-based, fluorescence, cytotoxicity control for IDE activator project, dose response (AID 588440); format: functional; conditions: Homo sapiens;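 also: cytotoxicity by LDH release measuring loss of membrane integrity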
Insulin-degrading enzyme [4] = target: T1, Insulin-degrading enzyme; test: recombinant IDE activation, cell-free – biochemical, fluorescence polarization, counter-screen for IDE activator project, dose response (AID 588681)
HEK293 [5] = test: optical interference in Abeta FP readout, dose response, artefact control for IDE activator project, biochemical, fluorescence polarization (AID 588442); format: functional, cell-based; conditions: Homo sapiens
[6] = viability loss in HEK293T cells – cell-based, cherry-picks, cytotoxicity control for HIV Vif inhibitor project, dose response (AID 652208); format: functional
[7] = target: T2, Microphthalmia-associated transcription factor (Homo sapiens, UniProt O75030); test: reducers of TRPM1 reporter luminescence, concentration series – cell-based, SK-MEL-5, cherry-picked, set 3, MITF inhibitor project, dose response (AID 493073); format: functional;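 also: SK-MEL-5 melanoma cells with luciferase driven by the MITF target TRPM1 promoter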
T2 sequence (O75030 whole entry): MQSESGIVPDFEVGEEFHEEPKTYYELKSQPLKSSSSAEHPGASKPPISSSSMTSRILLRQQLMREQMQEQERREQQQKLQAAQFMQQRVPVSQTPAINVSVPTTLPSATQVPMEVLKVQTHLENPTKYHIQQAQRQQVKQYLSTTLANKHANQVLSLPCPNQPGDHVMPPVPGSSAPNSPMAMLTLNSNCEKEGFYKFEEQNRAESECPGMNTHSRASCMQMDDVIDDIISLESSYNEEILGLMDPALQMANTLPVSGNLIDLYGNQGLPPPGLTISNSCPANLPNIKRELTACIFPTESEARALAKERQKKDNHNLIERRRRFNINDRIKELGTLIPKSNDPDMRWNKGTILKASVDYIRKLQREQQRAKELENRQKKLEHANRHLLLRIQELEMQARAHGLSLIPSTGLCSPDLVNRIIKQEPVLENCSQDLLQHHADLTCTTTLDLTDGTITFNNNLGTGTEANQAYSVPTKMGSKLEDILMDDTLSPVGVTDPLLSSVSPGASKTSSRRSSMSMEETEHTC

A-375 = test: MITF: Counter assay: A375 proliferation Measured in Cell-Based System Using Plate Reader - 2084-03_Inhibitor_Dose_DryPowder_Activity. [Related pubchem assays (depositor defined):AID488944]; format: functional; conditions: Homo sapiens
[8] = Shn3 3'UTR reporter signal decrease – cell-based, Clone20 osteoblasts, firefly luciferase, cherry-pick, set 2, Schnurri-3 inhibitor project, dose response (AID 720490); format: functional;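 also: actives lower the luminescence signal as inhibitors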
[9] = EF1alpha-driven Renilla reporter with control 3'UTR suppression – Clone20-Shn3RL cells, dual-Glo, cherry-pick, set 2, counter-screen for Shn3 3'UTR targeting project, dose response (AID 720724); format: functional, cell-based; conditions: Dual-Go Shn3RL
[10] = reduction of Shn3 3'UTR-driven luciferase in osteoblasts – cell-based, Clone20 osteoblasts, firefly luciferase, cherry-picked, dose response (AID 624132); format: functional;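 also: firefly luciferase luminescence from reporter carrying the Shn3 3'UTR in osteoblasts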
[11] = target: Arf-GAP with SH3 domain, ANK repeat and PH domain-containing protein 1 (Homo sapiens, UniProt Q9ULH1); format: functional;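 also: biochemical fluorescence polarization dose–response screen measuring inhibition of ASAP1; ASAP1 GAP domain stimulating GTP hydrolysis by truncated human ARF1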
Leucine aminopeptidase = target: T3, Leucine aminopeptidase (Plasmodium falciparum 3D7, UniProt Q8IL11); test: P. falciparum M17LAP inhibitors, primary screen, biochemical, fluorogenic H-Leu-NHMec substrate, 1536-well (AID 1619); format: functional
T3 sequence (Q8IL11 whole entry): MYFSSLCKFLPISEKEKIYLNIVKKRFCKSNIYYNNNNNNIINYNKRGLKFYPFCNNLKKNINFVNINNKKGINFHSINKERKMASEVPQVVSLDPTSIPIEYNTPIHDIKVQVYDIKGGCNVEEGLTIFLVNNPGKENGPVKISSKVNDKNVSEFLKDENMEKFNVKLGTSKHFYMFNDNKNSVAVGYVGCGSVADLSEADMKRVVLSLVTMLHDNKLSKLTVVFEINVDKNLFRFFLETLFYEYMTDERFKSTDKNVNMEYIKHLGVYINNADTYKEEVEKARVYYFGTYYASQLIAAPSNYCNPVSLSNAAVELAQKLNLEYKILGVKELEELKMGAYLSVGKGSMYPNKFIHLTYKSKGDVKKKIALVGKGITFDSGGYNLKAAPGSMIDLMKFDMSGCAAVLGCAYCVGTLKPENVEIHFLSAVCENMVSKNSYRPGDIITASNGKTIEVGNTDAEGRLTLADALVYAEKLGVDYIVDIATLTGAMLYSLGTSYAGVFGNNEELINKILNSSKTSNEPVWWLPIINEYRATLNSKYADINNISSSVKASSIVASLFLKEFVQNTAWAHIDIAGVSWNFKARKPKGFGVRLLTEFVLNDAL

INS1 = test: INS-1E survival protection against cytokine death – cell-based, luminescence, retest, dose response (AID 449756); format: functional; conditions: Rattus norvegicus;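 also: cell death triggered by IL-1 beta plus TNF-alpha plus IFN-gamma mixture; protective hits raise ATP signal compared with cytokine alone wells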
[12] = loss of viability in HepG2 cells – cell-based, CellTiter-Glo, cherry-picked, cytotoxicity control for Shn3 inhibitor project, dose response (AID 624134); format: functional
[13] = potency of ADAM10 substrate cleavage blockers – biochemical, QFRET, dose response (AID 743254);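 also: ADAM10 enzyme with the DM2 quenched FRET peptide as substrate; EDANS fluorescence gain as the protease cuts the substrate; inhibitor potency against ADAM10 proteolytic activity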
[14] = target: Disintegrin and metalloproteinase domain-containing protein 17 (Homo sapiens, UniProt P78536); test: inhibition of ADAM17 substrate cleavage – biochemical, quenched FRET substrate, counter-screen for ADAM10 exosite inhibitor project, dose response (AID 743253)
[15] = non-specific 3'UTR reporter inhibition in Clone20-Shn3RL – cell-based, Renilla luciferase, cherry-picked, counter-screen for Shn3 inhibitor project, dose response (AID 624133); format: functional
[16] = reduced cellular PGC1a acetyl-lysine signal – cell-based, cherry-picked samples, dose response (AID 720514); format: functional;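 also: potency may reflect raised or lowered acetylation signal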
[17] = Counterscreen for activators of the function of SWI/SNF related, matrix associated, actin dependent regulator of chromatin, subfamily a, member 2 (SMARCA2, BRM): Luminescence-based cell-based high throughput dose response assay to identify non-selective compounds using the VP16 reporter assay.; format: functional
[18] = target: SWI/SNF-related matrix-associated actin-dependent regulator of chromatin subfamily A member 2 (Homo sapiens, UniProt P51531); test: Luminescence-based cell-based high throughput dose response assay to identify activators of the function of SWI/SNF related, matrix associated, actin dependent regulator of chromatin, subfamily a, member 2 (SMARCA2, BRM).; format: functional
[19] = target: T4, DNA repair protein RAD52 homolog (Homo sapiens, UniProt P43351); format: functional, biochemical
T4 sequence (P43351 whole entry): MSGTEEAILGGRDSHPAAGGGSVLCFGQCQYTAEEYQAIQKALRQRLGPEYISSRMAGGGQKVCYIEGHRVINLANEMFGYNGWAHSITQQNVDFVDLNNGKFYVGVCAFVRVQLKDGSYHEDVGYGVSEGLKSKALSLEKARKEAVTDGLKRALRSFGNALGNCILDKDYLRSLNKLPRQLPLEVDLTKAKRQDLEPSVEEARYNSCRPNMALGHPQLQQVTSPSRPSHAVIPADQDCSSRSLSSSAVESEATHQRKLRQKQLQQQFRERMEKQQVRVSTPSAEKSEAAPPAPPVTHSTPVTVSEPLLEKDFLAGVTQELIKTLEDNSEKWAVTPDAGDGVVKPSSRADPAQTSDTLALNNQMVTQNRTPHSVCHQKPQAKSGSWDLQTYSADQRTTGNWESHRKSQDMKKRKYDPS

[20] = HeLa cell viability loss – 24 h, dry powder, set 2, cytotoxicity control, dose response (AID 651774); format: functional, cell-based
Aspartyl aminopeptidase = target: T5, Aspartyl aminopeptidase (Plasmodium falciparum 3D7, UniProt Q8I2J3)
T5 sequence (Q8I2J3 whole entry): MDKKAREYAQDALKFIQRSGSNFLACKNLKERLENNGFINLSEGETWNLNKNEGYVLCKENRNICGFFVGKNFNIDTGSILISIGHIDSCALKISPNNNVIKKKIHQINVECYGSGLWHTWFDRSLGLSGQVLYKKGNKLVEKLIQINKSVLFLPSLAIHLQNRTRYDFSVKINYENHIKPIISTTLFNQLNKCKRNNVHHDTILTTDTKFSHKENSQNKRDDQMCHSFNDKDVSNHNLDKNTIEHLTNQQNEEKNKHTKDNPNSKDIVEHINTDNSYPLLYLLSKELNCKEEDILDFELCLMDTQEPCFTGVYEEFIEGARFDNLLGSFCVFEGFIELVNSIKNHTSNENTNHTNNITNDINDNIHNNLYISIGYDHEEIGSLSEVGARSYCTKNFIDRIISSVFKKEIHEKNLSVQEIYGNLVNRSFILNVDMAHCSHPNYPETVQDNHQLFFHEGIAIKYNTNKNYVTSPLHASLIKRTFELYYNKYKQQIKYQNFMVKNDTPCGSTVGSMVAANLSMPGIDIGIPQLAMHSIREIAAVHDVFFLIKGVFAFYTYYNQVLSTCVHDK

Procathepsin L = Procathepsin L (Homo sapiens, UniProt P07711)
Sequence of Procathepsin L (P07711 whole entry): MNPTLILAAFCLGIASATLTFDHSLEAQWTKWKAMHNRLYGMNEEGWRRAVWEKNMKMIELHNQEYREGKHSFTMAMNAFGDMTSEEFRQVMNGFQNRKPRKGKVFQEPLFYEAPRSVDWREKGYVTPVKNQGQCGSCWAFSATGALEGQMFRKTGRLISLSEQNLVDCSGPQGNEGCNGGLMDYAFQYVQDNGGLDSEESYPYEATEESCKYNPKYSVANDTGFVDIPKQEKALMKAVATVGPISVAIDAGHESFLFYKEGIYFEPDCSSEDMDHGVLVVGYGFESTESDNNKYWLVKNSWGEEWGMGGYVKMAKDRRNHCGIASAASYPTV

Sequence of Melanocortin receptor 4 (P32245 whole entry): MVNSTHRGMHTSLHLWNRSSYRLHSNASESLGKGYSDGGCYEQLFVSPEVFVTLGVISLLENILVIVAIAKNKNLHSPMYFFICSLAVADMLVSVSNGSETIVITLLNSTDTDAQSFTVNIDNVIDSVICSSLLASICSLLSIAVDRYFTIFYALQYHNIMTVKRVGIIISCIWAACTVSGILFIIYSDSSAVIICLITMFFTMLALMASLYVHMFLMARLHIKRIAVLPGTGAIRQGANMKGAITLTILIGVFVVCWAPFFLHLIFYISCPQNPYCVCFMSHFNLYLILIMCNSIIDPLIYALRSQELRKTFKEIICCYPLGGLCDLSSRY
Sequence of 5-hydroxytryptamine receptor 2A (P35363 whole entry): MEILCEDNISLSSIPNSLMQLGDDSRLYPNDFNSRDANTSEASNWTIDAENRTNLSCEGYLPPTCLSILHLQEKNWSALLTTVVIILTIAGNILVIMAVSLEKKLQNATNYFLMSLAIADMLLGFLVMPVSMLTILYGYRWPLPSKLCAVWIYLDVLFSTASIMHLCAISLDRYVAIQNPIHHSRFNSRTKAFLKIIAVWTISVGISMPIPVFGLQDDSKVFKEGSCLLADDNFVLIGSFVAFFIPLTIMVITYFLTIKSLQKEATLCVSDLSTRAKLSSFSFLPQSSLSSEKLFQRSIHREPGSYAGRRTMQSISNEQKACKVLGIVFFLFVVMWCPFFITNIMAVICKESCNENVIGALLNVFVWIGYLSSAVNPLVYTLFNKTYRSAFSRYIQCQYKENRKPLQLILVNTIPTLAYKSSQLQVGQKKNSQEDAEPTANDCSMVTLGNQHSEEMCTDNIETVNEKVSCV
Sequence of Disintegrin and metalloproteinase domain-containing protein 17 (P78536 whole entry, the tested form may be a part): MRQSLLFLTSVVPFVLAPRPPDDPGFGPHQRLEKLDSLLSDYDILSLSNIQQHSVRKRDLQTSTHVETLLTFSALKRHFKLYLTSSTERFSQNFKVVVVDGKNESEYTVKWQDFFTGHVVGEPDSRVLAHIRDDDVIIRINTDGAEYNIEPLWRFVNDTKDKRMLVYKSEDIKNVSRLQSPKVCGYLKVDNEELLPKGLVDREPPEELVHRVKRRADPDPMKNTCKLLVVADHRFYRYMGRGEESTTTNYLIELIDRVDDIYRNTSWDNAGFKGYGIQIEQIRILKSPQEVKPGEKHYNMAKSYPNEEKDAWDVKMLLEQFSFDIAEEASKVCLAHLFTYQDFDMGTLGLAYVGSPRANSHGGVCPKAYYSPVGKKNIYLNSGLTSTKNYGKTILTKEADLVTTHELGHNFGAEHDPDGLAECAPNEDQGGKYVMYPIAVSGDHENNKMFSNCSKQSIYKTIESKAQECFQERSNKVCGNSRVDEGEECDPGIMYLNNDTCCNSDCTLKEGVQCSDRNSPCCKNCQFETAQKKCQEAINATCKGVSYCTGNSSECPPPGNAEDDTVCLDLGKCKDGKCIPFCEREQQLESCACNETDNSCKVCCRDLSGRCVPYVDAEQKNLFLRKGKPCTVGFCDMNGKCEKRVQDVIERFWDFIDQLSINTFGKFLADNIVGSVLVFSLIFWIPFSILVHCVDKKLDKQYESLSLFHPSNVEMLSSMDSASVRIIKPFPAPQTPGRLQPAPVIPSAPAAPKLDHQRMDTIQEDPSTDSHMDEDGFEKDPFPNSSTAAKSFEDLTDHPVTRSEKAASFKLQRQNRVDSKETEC
Sequence of SWI/SNF-related matrix-associated actin-dependent regulator of chromatin subfamily A member 2 (P51531 whole entry): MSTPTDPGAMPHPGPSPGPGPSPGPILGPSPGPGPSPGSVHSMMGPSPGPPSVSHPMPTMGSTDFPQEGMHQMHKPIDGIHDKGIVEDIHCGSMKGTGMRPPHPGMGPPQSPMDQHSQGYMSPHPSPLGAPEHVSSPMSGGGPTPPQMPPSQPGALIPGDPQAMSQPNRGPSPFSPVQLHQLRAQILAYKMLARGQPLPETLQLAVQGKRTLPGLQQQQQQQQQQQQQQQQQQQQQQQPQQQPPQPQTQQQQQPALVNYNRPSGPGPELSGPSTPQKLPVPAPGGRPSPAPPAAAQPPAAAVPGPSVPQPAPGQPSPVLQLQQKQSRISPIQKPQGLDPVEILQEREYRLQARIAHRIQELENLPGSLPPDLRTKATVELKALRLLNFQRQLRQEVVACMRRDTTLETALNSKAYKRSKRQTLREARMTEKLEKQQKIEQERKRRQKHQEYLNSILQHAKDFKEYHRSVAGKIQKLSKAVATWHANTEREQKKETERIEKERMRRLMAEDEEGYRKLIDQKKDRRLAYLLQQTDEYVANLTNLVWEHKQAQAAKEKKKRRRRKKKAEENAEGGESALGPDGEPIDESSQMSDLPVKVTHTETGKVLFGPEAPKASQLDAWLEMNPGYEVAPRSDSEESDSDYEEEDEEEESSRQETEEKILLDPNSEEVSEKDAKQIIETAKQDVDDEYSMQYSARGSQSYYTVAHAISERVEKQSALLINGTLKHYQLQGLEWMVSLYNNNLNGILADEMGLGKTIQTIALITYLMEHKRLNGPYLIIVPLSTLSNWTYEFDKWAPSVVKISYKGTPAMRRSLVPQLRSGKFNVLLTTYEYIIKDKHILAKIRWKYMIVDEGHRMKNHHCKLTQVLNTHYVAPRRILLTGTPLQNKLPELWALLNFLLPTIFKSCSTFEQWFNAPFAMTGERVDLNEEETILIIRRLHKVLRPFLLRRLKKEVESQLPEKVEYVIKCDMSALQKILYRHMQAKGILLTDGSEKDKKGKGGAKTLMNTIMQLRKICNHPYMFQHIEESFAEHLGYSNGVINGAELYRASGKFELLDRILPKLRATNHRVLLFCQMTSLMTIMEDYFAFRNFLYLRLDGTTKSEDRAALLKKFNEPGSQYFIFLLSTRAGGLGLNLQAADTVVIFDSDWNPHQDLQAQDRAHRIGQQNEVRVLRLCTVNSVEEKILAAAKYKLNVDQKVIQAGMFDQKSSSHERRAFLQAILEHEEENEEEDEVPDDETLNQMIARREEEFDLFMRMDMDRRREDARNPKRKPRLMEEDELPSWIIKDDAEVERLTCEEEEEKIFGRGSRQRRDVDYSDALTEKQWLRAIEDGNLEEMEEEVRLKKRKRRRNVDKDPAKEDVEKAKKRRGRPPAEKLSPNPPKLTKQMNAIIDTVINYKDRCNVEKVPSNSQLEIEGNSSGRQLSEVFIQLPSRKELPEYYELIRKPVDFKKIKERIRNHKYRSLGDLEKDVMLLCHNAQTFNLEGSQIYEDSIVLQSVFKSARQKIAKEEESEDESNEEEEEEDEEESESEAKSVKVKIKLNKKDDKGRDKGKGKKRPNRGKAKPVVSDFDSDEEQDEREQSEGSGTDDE
Sequence of Arf-GAP with SH3 domain, ANK repeat and PH domain-containing protein 1 (Q9ULH1 whole entry, the tested form may be a part): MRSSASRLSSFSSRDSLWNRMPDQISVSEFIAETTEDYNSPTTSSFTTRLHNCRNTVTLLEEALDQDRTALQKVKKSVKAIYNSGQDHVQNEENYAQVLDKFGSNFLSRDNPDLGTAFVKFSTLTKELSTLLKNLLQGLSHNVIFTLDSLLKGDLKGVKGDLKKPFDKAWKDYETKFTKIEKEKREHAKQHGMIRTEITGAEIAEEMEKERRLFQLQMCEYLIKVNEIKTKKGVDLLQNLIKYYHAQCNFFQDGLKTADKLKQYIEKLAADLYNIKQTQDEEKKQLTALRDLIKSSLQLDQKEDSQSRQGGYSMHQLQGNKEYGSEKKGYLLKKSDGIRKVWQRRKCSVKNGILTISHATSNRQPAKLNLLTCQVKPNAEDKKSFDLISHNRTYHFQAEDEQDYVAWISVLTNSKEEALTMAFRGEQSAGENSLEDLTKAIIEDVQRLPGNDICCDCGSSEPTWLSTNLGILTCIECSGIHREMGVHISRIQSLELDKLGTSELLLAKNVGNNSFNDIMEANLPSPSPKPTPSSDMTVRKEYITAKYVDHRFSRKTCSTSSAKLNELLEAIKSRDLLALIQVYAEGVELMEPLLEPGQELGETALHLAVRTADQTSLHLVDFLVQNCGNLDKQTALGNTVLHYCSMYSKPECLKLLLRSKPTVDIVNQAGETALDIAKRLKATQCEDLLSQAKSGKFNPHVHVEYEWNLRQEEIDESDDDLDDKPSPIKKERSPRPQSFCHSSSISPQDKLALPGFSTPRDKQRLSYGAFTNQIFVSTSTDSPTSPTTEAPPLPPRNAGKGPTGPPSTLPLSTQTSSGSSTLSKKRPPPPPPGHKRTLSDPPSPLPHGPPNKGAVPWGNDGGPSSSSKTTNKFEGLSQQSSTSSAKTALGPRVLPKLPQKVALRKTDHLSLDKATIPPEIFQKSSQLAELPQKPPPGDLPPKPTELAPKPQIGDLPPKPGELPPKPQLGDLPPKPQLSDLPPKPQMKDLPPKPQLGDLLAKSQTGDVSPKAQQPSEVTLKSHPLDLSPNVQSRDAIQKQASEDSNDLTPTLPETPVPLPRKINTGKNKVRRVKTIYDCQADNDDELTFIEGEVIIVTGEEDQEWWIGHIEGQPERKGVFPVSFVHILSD

SMILES: CCOC(=O)C1=CCN(Cc2ccccc2)CC1
- EC50 (Mu-type opioid receptor): 92.5 µM (inactive)
- EC50 [1]: 5.35 µM (active)

SMILES: Cc1cc(NC(=O)c2cncc(Br)c2)ccc1NC(=O)c1cc2ccccc2o1
- EC50 (Insulin-degrading enzyme [2]): > 54.7 µM (inactive)
- EC50 (Melanocortin receptor 4): > 89.2 µM (inactive)
- IC50 (HEK293 [3]): 5.63 µM (active)
- EC50 (Insulin-degrading enzyme [4]): > 54.7 µM (inactive)
- EC50 (HEK293 [5]): > 55.9 µM (inactive)
- AC50 [6]: 15.4 µM (active)
- AC50 [7]: 10.4 µM (active)
- AC50 (A-375): 26.2 µM (active)

SMILES: Cc1nc2scc(C)n2c(=O)c1S(=O)(=O)Nc1ccc(N2CCOCC2)c(Cl)c1
- AC50 [8]: 2.04 µM (active)
- AC50 [9]: 38.3 µM (active)
- AC50 [10]: 1.67 µM (active)

SMILES: Cc1ccc(NC(=O)CSc2ncccc2C(=O)Oc2cccc([N+](=O)[O-])c2)cc1Cl
- IC50 [11]: 45.7 µM (inactive)
- IC50 (Leucine aminopeptidase): 32 µM (active)

SMILES: COc1ccc(OC)c(NC(=O)CN(Cc2ccc(F)cc2)C2CCCCC2)c1
- AC50 (INS1): 4.33 µM (active)
- AC50 [8]: 6.54 µM (active)
- AC50 [12]: 50.8 µM (active)
- AC50 [9]: 34.6 µM (active)
- AC50 [10]: 4.99 µM (active)

SMILES: C=CCC[C@@H](Cc1ccc(F)cc1)C(=O)O[C@H](CNC(=O)[C@H](CC=C)CC(=O)N(CCO)Cc1ccccc1)c1ccccc1
- IC50 [13]: 12.2 µM (inactive)
- IC50 [14]: > 69.5 µM (inactive)

SMILES: COc1cc(NC(=O)NCc2ccco2)ccc1-c1ccc(NC(=O)NCc2ccco2)cc1OC
- AC50 [15]: 10.3 µM (active)
- AC50 [16]: 14 µM (active)
- AC50 [6]: > 52 µM (inactive)
- AC50 [12]: > 70 µM (inactive)
- AC50 [10]: 3.19 µM (active)

SMILES: CN(C)CCNC(=O)c1cccc(-c2cc(NC=O)c3ncc(-c4cccc(C(F)(F)F)c4)n3c2)c1
- EC50 [17]: > 91.2 µM (inactive)
- EC50 (Melanocortin receptor 4): > 89.2 µM (inactive)
- EC50 [18]: > 91.2 µM (inactive)
- AC50 [19]: 4.34 µM (active)

SMILES: CCc1nc2ccc(C(=O)Nc3ccc(OC)c(OC)c3)cn2c1N(CC)Cc1cccc(Br)c1
- IC50 [13]: > 69.5 µM (inactive)
- IC50 [14]: > 69.5 µM (inactive)

SMILES: O=C(Cc1ccc(Cl)cc1)NC1CCCC1
- AC50 [20]: > 70 µM (inactive)

SMILES: CNC[C@H](O)c1ccc(O)c(O)c1 [EPINEPHRINE BITARTRATE]
- IC50 (Aspartyl aminopeptidase): 3.01 µM (active)
- IC50 (Procathepsin L): > 59.6 µM (not active)
- EC50 [1]: 0.586 µM (active)
